Here are results for seven compounds from patent US20240368667A1, “RAPID, LABEL-FREE ANTIBIOTIC SUSCEPTIBILITY OF BACTERIA DIRECTLY FROM POSITIVE BLOOD OR BODILY FLUID/CULTURE” (priority 2021, published 2024).

One experiment relates to S. aureus 78. In words: Microbroth dilution MIC with and without sucrose recovery. The class given is cell-based, Staphylococcus aureus. The following applies: MIC given as multiple of S/I/R; for minimum inhibitory concentration (MIC), Standard: S. aureus 78 recovered by standard plating; for minimum inhibitory concentration (MIC), Sucrose: S. aureus 78 recovered through sucrose (Method 2). Here is the method:
(§1) Microbroth dilution for minimum inhibitory concentrations (MIC) with and without sucrose recovery. To isolate bacteria without sucrose, culture media from positive BacT/alert FA PLUS aerobic culture bottles (bioMérieux, Durham, NC) was serially diluted and plated onto LB agar (Lennox; Sigma-Aldrich, St. Louis, MO). Bacterial suspensions were prepared by resuspending colonies in CAMHB with incubation on a MaxQ 4000 incubator shaker (Thermo Fisher Scientific, Waltham, MA) at 37° C. and ˜225 rpm for 3 hours. Bacteria recovered via Method 2 were diluted 10-fold in CAMHB. Following incubation or sucrose recovery and dilution, bacterial suspensions were adjusted to ˜0.004 OD600 with CAMHB and a 50-μL aliquot distributed to each well of a 96-well plate containing CAMHB with and without clinically relevant antibiotics (2-fold dilution series). Gram-negative plates included: ceftazidime (3rd generation cephalosporin, RPI corp., Mount Prospect, IL), cefepime (4th generation cephalosporin, Chem-Impex Int'l, Wood Dale, IL), meropenem (carbapenem, Tokyo Chemical Industry, Tokyo, Japan), levofloxacin (quinolone, Alfa Aesar, Haverhill, MA), and tobramycin (aminoglycoside, MP Biomedicals LLC, Santa Ana, CA), while S. aureus plates contained: oxacillin (beta-lactam, Sigma-Aldrich, St. Louis, MO), vancomycin (glycopeptide, Santa Cruz Biotechnology, Dallas, TX), erythromycin (macrolide, Sigma-Aldrich, St. Louis, MO), clindamycin ([…]), and ciprofloxacin (fluoroquinolone, Sigma-Aldrich, St. Louis, MO). Antibiotic plates were incubated at 37° C. for 16-20 hours (gram-negative) or 35° C. for 24 hours (S. aureus), at which time, plates were removed from the incubator and visually inspected for bacterial growth. The MIC was set at the lowest antibiotic concentration at which no growth was detected.
(§2) Influence of Sucrose on Bacterial MIC. To rule out the potential effect of sucrose exposure in bacterial antibiotic susceptibility, microbroth dilution studies were performed on bacteria recovered using standard practices (i.e. plating following positive blood culture) and through selective lysis coupled with centrifugation through the sucrose cushion (Method 2).
For orientation: In broth dilution the organism is exposed to a series of concentrations in liquid medium.

Another experiment concerns E. coli 79. The experiment is described as above. The class given is cell-based, Escherichia coli. To be noted: MIC given as multiple of S/I/R; for minimum inhibitory concentration (MIC), Standard: E. coli 79 recovered by standard plating. Here is the method:
as §1, §2

A further experiment relates to P. aeruginosa 77. Described as above. The class given is cell-based, Pseudomonas aeruginosa. The following applies: MIC given as multiple of S/I/R. Here is the method:
as §1, §2

Experiment [1] relates to S. aureus. The experiment is described as follows: Broth microdilution (BMD) MIC. The following applies: for MIC: Staphylococcus aureus. The class given is cell-based, Staphylococcus aureus. Here is the method: as §1
For experiment [2], the system named is S. aureus. In words: Direct flow cytometric AST (high-throughput flow cytometry, HTFC) of sucrose-recovered bacteria. The class given is cell-based, Staphylococcus aureus. To be noted: for MIC: Staphylococcus aureus. Here is the method:
AST workflow using bacteria recovered directly from positive blood culture. A 1-mL aliquot of bacteria recovered using separation method 2 was diluted 10-fold in CAMHB, the OD600 adjusted to ˜0.01, and a 50 μL aliquot distributed into each well of a 96-well plate containing CAMHB with and without ceftazidime, tobramycin, and either meropenem (E. coli and P. aeruginosa) or oxacillin (S. aureus). Following Clinical and Laboratory Standards Institute (CLSI) guidelines^33, 2% sodium chloride (NaCl) was present in wells containing oxacillin to assist in the detection of methicillin-resistant S. aureus (MRSA). […] To account for observed differences in doubling and lag times, E. coli and P. aeruginosa were incubated for 4 hours at 37° C., while S. aureus was incubated for 9 hours at 35° C. After incubation, antibiotic plates were removed from the incubator and directly stored on ice (i.e. no post-processing) until high-throughput flow cytometry (BD LSRFortessa with HTS-system, BD, Franklin Lakes, NJ). No-antibiotic controls and antibiotic-treated samples were handled identically.
MIC Determination by flow cytometry. Because antibiotic effects are observed in both the position of scatter signatures (morphology changes) and count rates (growth inhibition), a modified count rate, accounting for scatter position, was used to evaluate susceptibility. Briefly, no-antibiotic control populations (triplicate) were pooled, binned, and a convex hull boundary set at 1-standard deviation above the background (not including bins with zero counts) was drawn. […] The overlap ratio, measuring changes in morphology, was then computed by dividing the number of sample events within the no-antibiotic control boundary by the total number of events within the sample. As an increase in count rate attributed to viable bacteria in antibiotic-treated samples is not scientifically meaningful, the fractional overlap was multiplied by the minimum of the control and sample count rates to generate a modified count rate accounting for antibiotic-induced morphological changes. All modified count rates were normalized by the average of the no-antibiotic controls. For automatic MIC determination, normalized count rates corresponding to n (index of predicted MIC), n+1, n+2 were iteratively fit to a linear function with a frameshift of n+1 between iterations (FIGS. 8 and 9). […] A threshold of −0.01 instead of zero was used to mitigate the influence of small fluctuations in normalized count rates on susceptibility determinations.

Experiment [3] has as its system S. aureus. The experiment is described as follows: Influence of sucrose on bacterial growth (OD600). The class given is cell-based, Staphylococcus aureus. The following applies: S. aureus recovered in 55% sucrose (w/v), undiluted, 37° C. with shaking. Here is the method:
(§3) Influence of sucrose on bacterial growth. To determine the effects of sucrose concentration on bacterial growth, bacteria recovered from positive blood cultures following Method 2 were diluted 1-fold (i.e. undiluted), 2-fold, 5-fold, 10-fold, 20-fold, and 100-fold in fresh CAMHB within a 96-well plate. The CAMHB broth inoculated with a fresh overnight culture was used as a positive control. Following dilution, samples were incubated at 37° C. with shaking, and growth was monitored at 15-min intervals via OD600 measurements using a plate reader (Hidex, Turku, Finland). To further investigate the effects of sucrose on bacterial growth, recovered bacteria-sucrose solutions were diluted 10-fold (optimal dilution factor) and growth was compared to control cultures inoculated with the original blood culture, an overnight culture, or colony resuspension without sucrose exposure. Growth (37° C. with shaking) was monitored via OD600 measurements using a Hidex plate reader.
(§4) Impact of sucrose on bacterial growth. […] Recovered bacteria within 55% sucrose (w/v) were directly or 2-fold (27.5%), 5-fold (11%), 10-fold (5.5%), 20-fold (2.75%), and 100-fold (0.55%) diluted in CAMHB and growth monitored on a plate reader set at 37° C. with medium shaking. […]

The test system of a further experiment is P. aeruginosa. In words: Influence of sucrose on bacterial growth (OD600). The class given is cell-based, Pseudomonas aeruginosa. The following applies: P. aeruginosa recovered in 55% sucrose (w/v), undiluted, 37° C. with shaking. Here is the method:
as §3, §4

Another experiment has as its system E. coli. The experiment is described as follows: Influence of sucrose on bacterial growth (OD600). Format: cell-based, Escherichia coli. The following applies: E. coli recovered in 55% sucrose (w/v), undiluted, 37° C. with shaking. Here is the method:
as §3, §4

Converted amounts (≈) assume the structure as drawn. Some results are limits rather than exact numbers.

As for `CN[C@H](CC(C)C)C(=O)N[C@H]1C(=O)N[C@@H](CC(N)=O)C(=O)N[C@H]2C(=O)N[C@H]3C(=O)N[C@H](C(=O)N[C@H](C(=O)O)c4cc(O)cc(O)c4-c4cc3ccc4O)[C@H](O)c3ccc(c(Cl)c3)Oc3cc2cc(c3O[C@@H]2O[C@H](CO)[C@@H](O)[C@H](O)[C@H]2O[C@H]2C[C@](C)(N)[C@H](O)[C@H](C)O2)Oc2ccc(cc2Cl)[C@H]1O` [Vancomycin, vancomycin], in the experiment with S. aureus 78, the “minimum inhibitory concentration (MIC), Standard” value is “¼S” and the “minimum inhibitory concentration (MIC), Sucrose” value is “⅛S”.

For the compound `CO/N=C(\C(=O)N[C@@H]1C(=O)N2C(C(=O)[O-])=C(C[N+]3(C)CCCC3)CS[C@H]12)c1csc(N)n1` [Cefepime, cefepime], the “minimum inhibitory concentration (MIC), Standard” value in the experiment on E. coli 79 is reported as 2R; with P. aeruginosa 77 (P. aeruginosa 77 recovered by standard plating), “½S”. Also, the “minimum inhibitory concentration (MIC), Sucrose” value in the experiment with P. aeruginosa 77 (P. aeruginosa 77 recovered through sucrose (Method 2)) is recorded as “¼S”.

With `CC[C@H]1OC(=O)[C@H](C)[C@@H](O[C@H]2C[C@@](C)(OC)[C@@H](O)[C@H](C)O2)[C@H](C)[C@@H](O[C@@H]2O[C@H](C)C[C@H](N(C)C)[C@H]2O)[C@](C)(O)C[C@@H](C)C(=O)[C@H](C)[C@@H](O)[C@]1(C)O` [Erythromycin, erythromycin], in the experiment on S. aureus 78, the “minimum inhibitory concentration (MIC), Standard” value came to 4R and the “minimum inhibitory concentration (MIC), Sucrose” value amounted to 2R.

As for `Cc1onc(-c2ccccc2)c1C(=O)N[C@@H]1C(=O)N2[C@@H]1SC(C)(C)[C@@H]2C(=O)O` [Oxacillin, oxacillin], the “susceptibility classification, BMD” value in the experiment with S. aureus [1] (S. aureus ATCC25923) is recorded as “(MSSA)”; with S. aureus [1] (S. aureus ATCC29213), “(MSSA)”; in the experiment with S. aureus [1] (S. aureus ATCC43300) it was “(MRSA)”; with S. aureus [1] (S. aureus Blood Culture A), “(MSSA)”; in the experiment on S. aureus [1] (S. aureus Blood Culture B), “(MRSA)”; in the experiment with S. aureus [1] (S. aureus NRS382), “(MRSA)”. The “susceptibility classification, BMD” value in the experiment with S. aureus [1] (S. aureus NRS385) is reported as “(MRSA)”. Further, the MIC is 0.125 µg/mL (≈ 0.311 µM) with S. aureus [1] (ATCC25923, read-out: Minimum inhibitory concentration, BMD, S. aureus ATCC25923); 0.25 µg/mL (≈ 0.623 µM) with S. aureus [1] (ATCC29213, read-out: Minimum inhibitory concentration, BMD, S. aureus ATCC29213); 16 µg/mL (≈ 39.9 µM) with S. aureus [1] (ATCC43300, read-out: Minimum inhibitory concentration, BMD, S. aureus ATCC43300); more than 16 µg/mL with S. aureus [1] (S. aureus NRS382, read-out: Minimum inhibitory concentration, BMD); more than 16 µg/mL in the experiment on S. aureus [1] (S. aureus NRS385, read-out: Minimum inhibitory concentration, BMD); 0.125 µg/mL (≈ 0.311 µM) in the experiment on S. aureus [1] (read-out: Minimum inhibitory concentration, BMD, S. aureus Blood Culture A). The MIC in the experiment with S. aureus [1] (read-out: Minimum inhibitory concentration, BMD, S. aureus Blood Culture B) is more than 16 µg/mL; in the experiment with S. aureus [2] (9 h, read-out: Minimum inhibitory concentration, HTFC, S. aureus Blood Culture A, oxacillin 9 hours (35° C.)), 0.125 µg/mL (≈ 0.311 µM); with S. aureus [2] (9 h, read-out: Minimum inhibitory concentration, HTFC, S. aureus Blood Culture B, oxacillin 9 hours (35° C.)), 4 µg/mL (≈ 9.96 µM); with S. aureus [2] (ATCC25923, 9 h, read-out: Minimum inhibitory concentration, HTFC, S. aureus ATCC25923, oxacillin 9 hours (35° C.)), 0.25 µg/mL (≈ 0.623 µM); with S. aureus [2] (ATCC29213, 9 h, read-out: Minimum inhibitory concentration, HTFC, S. aureus ATCC29213, oxacillin 9 hours (35° C.)), 2 µg/mL (≈ 4.98 µM); in the experiment on S. aureus [2] (ATCC43300, 9 h, read-out: Minimum inhibitory concentration, HTFC, S. aureus ATCC43300, oxacillin 9 hours (35° C.)) it was more than 4 µg/mL. The MIC was more than 4 µg/mL with S. aureus [2] (S. aureus NRS382, oxacillin 9 hours (35° C.), read-out: Minimum inhibitory concentration, HTFC) and more than 4 µg/mL in the experiment with S. aureus [2] (S. aureus NRS385, oxacillin 9 hours (35° C.), read-out: Minimum inhibitory concentration, HTFC). The “susceptibility classification, HTFC” value is given as “(MSSA)” in the experiment on S. aureus [2] (S. aureus ATCC25923, oxacillin 9 hours (35° C.)); “(MSSA)” in the experiment on S. aureus [2] (S. aureus ATCC29213, oxacillin 9 hours (35° C.)); “(MRSA)” with S. aureus [2] (S. aureus ATCC43300, oxacillin 9 hours (35° C.)); “(MSSA)” with S. aureus [2] (S. aureus Blood Culture A, oxacillin 9 hours (35° C.)); “(MRSA)” in the experiment with S. aureus [2] (S. aureus Blood Culture B, oxacillin 9 hours (35° C.)); “MRSA” in the experiment with S. aureus [2] (S. aureus NRS382, oxacillin 9 hours (35° C.)). Also, the “susceptibility classification, HTFC” value in the experiment on S. aureus [2] (S. aureus NRS385, oxacillin 9 hours (35° C.)) is “MRSA”. Further, in the experiment with S. aureus 78, the “minimum inhibitory concentration (MIC), Standard” value worked out at 4R. Moreover, the “minimum inhibitory concentration (MIC), Sucrose” value in the experiment with S. aureus 78 is 4R.

With `OC[C@H]1O[C@@](CO)(O[C@H]2O[C@H](CO)[C@@H](O)[C@H](O)[C@H]2O)[C@@H](O)[C@@H]1O` [sucrose, D (+)-sucrose], the “bacterial growth (OD600)” value with S. aureus [3], with P. aeruginosa and with E. coli was “inhibiting growth completely” throughout.

As to `CCC[C@@H]1C[C@@H](C(=O)N[C@@H]([C@H]2O[C@H](SC)[C@H](O)[C@@H](O)[C@H]2O)[C@H](C)Cl)N(C)C1` [Clindamycin, clindamycin], in the experiment with S. aureus 78, the “minimum inhibitory concentration (MIC), Standard” value was 4R and the “minimum inhibitory concentration (MIC), Sucrose” value is 4R.

As for `C[C@H]1COc2c(N3CCN(C)CC3)c(F)cc3c(=O)c(C(=O)O)cn1c23` [Levofloxacin, levofloxacin], the “minimum inhibitory concentration (MIC), Standard” value with E. coli 79 is more than 4R. For the same compound, the “minimum inhibitory concentration (MIC), Sucrose” value with E. coli 79 (E. coli 79 recovered through sucrose (Method 2)) worked out at 4R.
